Assay results published in patent US9879050B2, “Substituted urea depsipeptide analogs as activators of the CLPP endopeptidase” (priority 2013, dated 2018).
Converted amounts (≈) assume the structure as drawn. Where two headings read alike, the source gives them in different places. *1 amine or outer side, *2 acyl side, *3 side chain or, on linkers, in order; H or OH if unused. Where a SMILES comes first, the peptide text is derived from it. Bridges are numbered along the chain shown (N, C = ends). [ ]: non-standard residue; d: D form. The star is where a group is joined. Phe(3,5-F2) = N[C@@H](Cc1cc(F)cc(F)c1)C(=O)O; NHPh(4-CF3) = FC(F)(F)c1ccc(N*)cc1; Heptenoyl(2E) = CCCC/C=C/C(=O)*; aThr = C[C@H](O)[C@H](N)C(=O)O; Pip = O=C(O)[C@@H]1CCCCN1; CO = O=C([*:1])[*:2]

Columns and labels:
Sa-ClpP = target: T1, Sa-ClpP (Staphylococcus aureus, UniProt Q2G036); assay: ADEP displacement fluorescence polarization assay; format: binding, S. aureus
T1 construct: made in house; host or cells: E. coli BL21 (DE3)
T1 sequence (Q2G036 whole entry): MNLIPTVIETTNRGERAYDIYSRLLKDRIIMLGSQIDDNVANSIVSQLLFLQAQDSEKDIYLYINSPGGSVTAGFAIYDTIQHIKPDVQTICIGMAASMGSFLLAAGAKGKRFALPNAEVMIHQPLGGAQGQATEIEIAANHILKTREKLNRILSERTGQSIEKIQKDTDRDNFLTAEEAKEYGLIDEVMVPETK
Procedure, shortened: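 Displacement of TAMRA-labelled ADEP 2591 probe (50 nM) from 1 μM Sa-ClpP, pre-equilibrated 1 h in Tris·HCl pH 8.0 with 2% DMSO, then 120 min at room temperature with compound, triplicate. Polarization (mP) read ex 530/em 579 nm, normalised to 20 μM ADEP 2378 and DMSO controls; four-parameter fit.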

[1] = Cytotoxicity assay, CellTiter-Glo cell viability; format: cell-based; settings: African green monkey
Procedure, shortened: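 Vero cells seeded overnight at 37 °C in DMEM with 10% FBS, then exposed to serial dilutions of compound for 72 h. Viability read by CellTiter-Glo luminescence; IC50 from duplicates, given as the range of two independent experiments.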

B. subtilis ATCC 23857 = assay: Minimal inhibitory concentration, microbroth dilution; format: cell-based; settings: Bacillus subtilis, ATCC23857, read-out: Minimal Inhibitory Concentration B. subtilis ATCC 23857
Procedure, shortened: (§1)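 Compound was diluted twofold in the appropriate broth. Bacterial suspension (approx. 10^5 cfu/mL) was then added in equal volume, giving a maximum test concentration of 200 μM. After aerobic overnight incubation at 37 °C, wells were inspected visually for growth.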

S. aureus ATCC 29213 = assay: as above; format: cell-based; settings: Staphylococcus aureus, ATCC29213, read-out: Minimal Inhibitory Concentration S. aureus ATCC 29213
Procedure, shortened: as §1

S. aureus ClpP (Sa-ClpP) = target: T2, S. aureus ClpP (Sa-ClpP) (Staphylococcus aureus, UniProt Q2G036); assay: ClpP activation, casein-BODIPY digestion assay (first described method); format: biochemical
T2 construct: made in house; host or cells: E. coli BL21 (DE3)
T2 sequence (Q2G036 whole entry): as above
Method: The compounds were assayed in a casein digestion assay in order to determine their effect on ClpP activation. Briefly, the assay was carried out using S. aureus ClpP (“Sa-ClpP”) overexpressed in E. coli BL21 (DE3) and purified in a two-step process. Purity of the protein was assessed through SDS PAGE analysis. EC50 evaluations were conducted in triplicate in a 20 μl assay format using a method adapted from Maurizi et al. (Methods Enzymol. (1994) 244:314-331.). Each well contained 10 μM saClpP, 25 μg/ml BODIPY FL casein (Invitrogen Corporation, San Diego, Calif.), and test compound in concentrations ranging between 0-100 μM in assay buffer (50 mM Tris pH 8, 200 mM KCl, and 1 mM TCEP). The reaction took place at 37° C. Fluorescence (excitation 485 nm; emission 528 nm) was measured in five minute intervals over a 45 min period using a BioTek HT fluorescence microplate reader (BioTek Instruments, Inc., Winooski, Vt.). Velocity of each reaction was calculated and data was fit to a dose response curve using GraphPad Prism® software (GraphPad Software, Inc., La Jolla, Calif.). EC50 is the effective concentration of compound which causes 50% activation of S. aureus ClpP in the foregoing BODIPY FL casein assay.

[2] = 1 μM Sa-ClpP, 50 nM FP probe ADEP 2591, read-out: ADEP Displacement IC50
[3] = Vero cells, 72 hours, read-out: Cytotoxicity IC50
[4] = first described ClpP activation assay (**), 10 μM saClpP, 25 μg/ml BODIPY FL casein, 37° C., read-out: ClpP Activation EC50

Row | SMILES | IC50 (Sa-ClpP; [2]) | IC50 at 72 h [1, 3] | MIC (B. subtilis ATCC 23857) | MIC (S. aureus ATCC 29213) | EC50 (S. aureus ClpP (Sa-ClpP); [4]) | IC50 (Sa-ClpP) | EC50 (S. aureus ClpP (Sa-ClpP)) | IC50 at 72 h [1]
1 | CCCC/C=C/C(=O)N[C@@H](Cc1cc(F)cc(F)c1)C(=O)N[C@@H]1C(=O)N2CCC[C@H]2C(=O)N2CCCC[C@H]2C(=O)N[C@@H](C)C(=O)N2CCC[C@H]2C(=O)O[C@H]1C [ADEP 2719, reference compound] ({Heptenoyl(2E)}-[Phe(3,5-F2)][aThr]P[Pip]AP; ester 2-C) | 6.2 ± 0.3 µM | 37.7 ± 3.4 µM |  |  |  |  |  | 
2 | C[C@@H]1C[C@H]2C(=O)OC[C@H](NC(=O)[C@H](Cc3ccccc3)NC(=O)Nc3ccc(Cl)cc3)C(=O)N3CCC[C@H]3C(=O)N3CCCC[C@H]3C(=O)N[C@@H](C)C(=O)N2C1 [Compound 3, (S)-2-(3-(4-Chlorophenyl)Ureido)-N-((2R,6S,8aS,14aS,20S,23aS)-2,6-Dimethyl-5,8,14,19,23-Pentaoxooctadecahydro-1H,5H,14H,19H-Pyrido[2,1-I]Dipyrrolo[2,1-C:2′,1′-L][1]Oxa[4,7,10,13]Tetraazacyclohexadecin-20-Yl)-3-Phenylpropanamide] | 9.25 ± 0.5 µM | 63 ± 5.8 µM | 0.78 µM (≈ 0.607 µg/mL) | 1.56 µM (≈ 1.21 µg/mL) | 3.3 ± 0.2 µM |  |  | 
3 | C[C@@H]1C[C@H]2C(=O)OC[C@H](NC(=O)[C@H](Cc3ccccc3)NC(=O)Nc3ccc(N(C)C)cc3)C(=O)N3CCC[C@H]3C(=O)N3CCCC[C@H]3C(=O)N[C@@H](C)C(=O)N2C1 [Compound 5, (S)—N-((2R,6S,8aS,14aS,20S,23aS)-2,6-Dimethyl-5,8,14,19,23-Pentaoxooctadecahydro-1H,5H,14H,19H-Pyrido[2,1-1]Dipyrrolo[2,1-C:2′,1′-L][1]Oxa[4,7,10,13]Tetraazacyclohexadecin-20-Yl)-2-(3-(4-(Dimethylamino)Phenyl)Ureido)-3-Phenylpropanamide] | 28 ± 2.3 µM | 91.3 ± 12.7 µM | 0.78 µM (≈ 0.614 µg/mL) | 6.25 µM (≈ 4.92 µg/mL) | 1.3 ± 0.2 µM |  |  | 
4 | COc1ccc(NC(=O)N[C@@H](Cc2ccccc2)C(=O)N[C@H]2COC(=O)[C@@H]3C[C@@H](C)CN3C(=O)[C@H](C)NC(=O)[C@@H]3CCCCN3C(=O)[C@@H]3CCCN3C2=O)cc1 [Compound 6, (S)—N-((2R,6S,8aS,14aS,20S,23aS)-2,6-Dimethyl-5,8,14,19,23-Pentaoxooctadecahydro-1H,5H,14H,19H-Pyrido[2,1-1]Dipyrrolo[2,1-C:2′,1′-L][1]Oxa[4,7,10,13]Tetraazacyclohexadecin-20-Yl)-2-(3-(4-Methoxyphenyl)Ureido)-3-Phenylpropanamide] | 27.7 ± 1.5 µM | > 100 µM | 1.56 µM (≈ 1.21 µg/mL) | 3.13 µM (≈ 2.42 µg/mL) | 2 ± 0.1 µM |  |  | 
5 | C[C@@H]1C[C@H]2C(=O)OC[C@H](NC(=O)[C@H](Cc3ccccc3)NC(=O)Nc3ccccc3Cl)C(=O)N3CCC[C@H]3C(=O)N3CCCC[C@H]3C(=O)N[C@@H](C)C(=O)N2C1 [Compound 7, (S)-2-(3-(2-Chlorophenyl)Ureido)-N-((2R,6S,8aS,14aS,20S,23aS)-2,6-Dimethyl-5,8,14,19,23-Pentaoxooctadecahydro-1H,5H,14H,19H-Pyrido[2,1-I]Dipyrrolo[2,1-C:2′,1′-L][1]Oxa[4,7,10,13]Tetraazacyclohexadecin-20-Yl)-3-Phenylpropanamide] | 130 ± 11.3 µM | > 100 µM | 6.25 µM (≈ 4.86 µg/mL) | 12.5 µM (≈ 9.73 µg/mL) | 34.6 ± 6.8 µM |  |  | 
6 | C[C@@H]1C[C@H]2C(=O)OC[C@H](NC(=O)[C@H](Cc3ccccc3)NC(=O)Nc3cccc(Cl)c3)C(=O)N3CCC[C@H]3C(=O)N3CCCC[C@H]3C(=O)N[C@@H](C)C(=O)N2C1 [Compound 9, (S)-2-(3-(3-Chlorophenyl)Ureido)-N-((2R,6S,8aS,14aS,20S,23aS)-2,6-Dimethyl-5,8,14,19,23-Pentaoxooctadecahydro-1H,5H,14H,19H-Pyrido[2,1-I]Dipyrrolo[2,1-C:2′,1′-L][1]Oxa[4,7,10,13]Tetraazacyclohexadecin-20-Yl)-3-Phenylpropanamide] | 25.4 ± 2.2 µM | 89 ± 5 µM | 1.56 µM (≈ 1.21 µg/mL) | 3.13 µM (≈ 2.44 µg/mL) | 1 ± 0.1 µM |  |  | 
7 | C[C@@H]1C[C@H]2C(=O)OC[C@H](NC(=O)[C@H](Cc3ccccc3)NC(=O)Nc3ccc4c(c3)CCN4C)C(=O)N3CCC[C@H]3C(=O)N3CCCC[C@H]3C(=O)N[C@@H](C)C(=O)N2C1 [Compound 11, (S)—N-((2R,6S,8aS,14aS,20S,23aS)-2,6-Dimethyl-5,8,14,19,23-Pentaoxooctadecahydro-1H,5H,14H,19H-Pyrido[2,1-I]Dipyrrolo[2,1-C:2′,1′-L][1]Oxa[4,7,10,13]Tetraazacyclohexadecin-20-Yl)-2-(3-(1-Methylindolin-5-Yl)Ureido)-3-Phenylpropanamide] | 4.45 ± 0.3 µM | 76 ± 10.6 µM | 1.25 µM (≈ 0.999 µg/mL) | 2.5 µM (≈ 2 µg/mL) | 2.3 ± 0.3 µM |  |  | 
8 | Cc1ccc(NC(=O)N[C@@H](Cc2cc(F)cc(F)c2)C(=O)N[C@@H]2C(=O)N3CCC[C@H]3C(=O)N3CCCC[C@H]3C(=O)N[C@@H](C)C(=O)N3CCC[C@H]3C(=O)O[C@H]2C)cc1 [Compound 15, (S)-3-(3,5-Difluorophenyl)-N-((6S,8aS,14aS,20S,21 S,23aS)-6,21-Dimethyl-5,8,14,19,23-Pentaoxooctadecahydro-1H,5H,14H,19H-Pyrido[2,1-I]Dipyrrolo[2,1-C:2′,1′-L][1]Oxa[4,7,10,13]Tetraazacyclohexadecin-20-Yl)-2-(3-(P-Tolyl)Ureido)Propanamide] | 8.4 ± 0.2 µM | 39.7 ± 6.6 µM | < 0.1 µM | 0.6 µM (≈ 0.476 µg/mL) | 4.6 ± 0.9 µM |  |  | 
9 | C[C@@H]1NC(=O)[C@@H]2CCCCN2C(=O)[C@@H]2CCCN2C(=O)[C@@H](NC(=O)[C@H](Cc2cc(F)cc(F)c2)NC(=O)Nc2ccc(C(F)(F)F)cc2)[C@H](C)OC(=O)[C@@H]2CCCN2C1=O [Compound 16, (S)-3-(3,5-Difluorophenyl)-N-((6S,8aS,14aS,20S,21 S,23aS)-6,21-Dimethyl-5,8,14,19,23-Pentaoxooctadecahydro-1H,5H,14H,19H-Pyrido[2,1-I]Dipyrrolo[2,1-C:2′,1′-L][1]Oxa[4,7,10,13]Tetraazacyclohexadecin-20-Yl)-2-(3-(4-(Trifluoromethyl)Phenyl)Ureido)Propanamide] ({NHPh(4-CF3)-CO}-[Phe(3,5-F2)][aThr]P[Pip]AP; ester 2-C) | 8.3 ± 0.6 µM | 74.3 ± 9 µM | 0.4 µM (≈ 0.339 µg/mL) | 0.4 µM (≈ 0.339 µg/mL) | 4.4 ± 0.7 µM |  |  | 
10 | C[C@@H]1NC(=O)[C@@H]2CCCCN2C(=O)[C@@H]2CCCN2C(=O)[C@@H](NC(=O)[C@H](Cc2cc(F)cc(F)c2)NC(=O)Nc2ccc3c(c2)OCO3)[C@H](C)OC(=O)[C@@H]2CCCN2C1=O [Compound 17, (S)-2-(3-(Benzo[D][1,3]Dioxol-5-Yl)Ureido)-3-(3,5-Difluorophenyl)-N-((6S,8aS,14aS,20S,21 S,23aS)-6,21-Dimethyl-5,8,14,19,23-Pentaoxooctadecahydro-1H,5H,14H,19H-Pyrido[2,1-I]Dipyrrolo[2,1-C:2′,1′-L][1]Oxa[4,7,10,13]Tetraazacyclohexadecin-20-Yl)Propanamide] |  |  |  |  |  | 7.2 ± 0.4 µM | 3.6 ± 0.6 µM | 46.5 ± 9.8 µM
11 | C[C@H]1C[C@H]2C(=O)O[C@@H](C)[C@H](NC(=O)[C@H](Cc3cc(F)cc(F)c3)NC(=O)Nc3ccc4c(c3)OCO4)C(=O)N3CCC[C@H]3C(=O)N3CCCC[C@H]3C(=O)N[C@@H](C)C(=O)N2C1 [Compound 20, (S)-2-(3-(Benzo[D][1,3]Dioxol-5-Yl)Ureido)-3-(3,5-Difluorophenyl)-N-((2R,6S,8aS,14aS,20S,21 S,23aS)-2,6,21-Trimethyl-5,8,14,19,23-Pentaoxooctadecahydro-1H,5H,14H,19H-Pyrido[2,1-I]Dipyrrolo[2,1-C:2′,1′-L][1]Oxa[4,7,10,13]Tetraazacyclohexadecin-20-Yl)Propanamide] |  |  |  |  |  | 6 ± 0.3 µM | 1.6 ± 0.3 µM | 52.8 ± 4.9 µM
